Results published in patent EP0336132A1, “1-Phenylpropyl compounds” (Byk Gulden Lomberg Chemische Fabrik GmbH, priority 1988, dated 1989).
Like-named read-outs stand apart in the source and are kept apart here.

Tested on: genetisch hypertonen Ratten
Assay: Antihypertensive effect in the spontaneously hypertensive rat, systolic blood pressure by tail cuff after oral dosing
Assay type: in vivo, Ratte
Settings: male SHR/N/Ibm/Bm rats, N=6, mean of day 1 and 2; for change in vivo at 25 µmol/kg / change in vivo at 10 µmol/kg: Rattus norvegicus, po; for change in vivo at 25 µmol/kg / BP (% Änderung vs. Kontrolle), Mittelwert für Meßzeitpunkte: Stunden nach Gabe (1. und 2. Tag) 2h / BP (% Änderung vs. Kontrolle), Mittelwert für Meßzeitpunkte: Stunden nach Gabe (1. und 2. Tag) 6h: 25 µmol/kg p.o. once daily on two consecutive days; for change in vivo at 10 µmol/kg: 10 µmol/kg p.o. once daily on two consecutive days
Source text: Die antihypertensive Wirksamkeit der erfindungsgemäßen Verbindungen kann am Modell der spontan hypertonen Ratte nachgewiesen werden.
Zur Bestimmung der antihypertensiven Wirkung werden die unten aufgeführten Verbindungen in den angegebenen Dosen an zwei aufeinander folgenden Tagen an je 6 männlichen Ratten (Stamm SHR/N/Ibm/Bm, 250-350 g) mit genetisch bedingtem Hochdruck (systolischer Blutdruck > 180 mmHg) täglich einmal mittels Schlundsonde verabfolgt. Die Messung des Blutdrucks erfolgt jeweils 2, 6 und 24 Stunden nach Substanzgabe.
Die Blutdruckmessung wird in einer Wärmekammer bei 36°C vorgenommen, um eine bessere Durchblutung der Schwanzarterie zu erreichen. Hierzu werden die Tiere in perforierte Lochblechkäfige verbracht und 20 - 40 Min. nach Beginn der Aufwärmung gemessen. Zur Messung des systolischen arteriellen Drucks wird eine ringförmige Manschette mit aufblasbarer Gummimembran zur Unterbindung der Durchblutung und ein ringförmiger Piezokristallaufnehmer zur Erfassung der Pulswellen auf den Schwanz aufgeschoben. Nach erfolgter Unterbindung des Blutstroms in der Schwanzarterie wird der Manschettendruck kontinuierlich reduziert. Die Wiederkehr der Pulswellen bei Druckablassen wird automatisch als systolischer Blutdruck erkannt und ausgedruckt (Bühler, R. et al.: Microprocessor-based automation of blood pressure measurement in the conscious rat. Proceedings of the 4th international symposium on rats with spontaneous hypertension and related studies, Rascher, R. et al. (Eds.), Schattauer Verlag, Stuttgart, New York, 1982, S. 410-413). Pulssignale und Druckverlauf werden zur Auswertung graphisch aufgezeichnet.
Zur Gewöhnung an den Meßvorgang werden die Tiere vor Substanzprüfung 14 Tage trainiert. In der zweiten Trainingswoche werden Blutdruck-Vorwerte erhoben. Tiergruppen, die Substanz erhalten, werden gegen eine Kontrollgruppe geprüft. In der anschließenden Tabelle werden die untersuchten Verbindungen durch laufende Nummern gekennzeichnet, die mit den jeweiligen Beispielnummern übereinstimmen. Bei getrennten Diastereomeren ist der Drehwert des untersuchten Diastereomers angegeben.
Tabelle I gibt für die Vertreter der erfindungsgemäßen Verbindungen die prozentuale Senkung des Blutdrucks (BP) nach oraler Verabreichung bei der Ratte wieder.
%-Änderungen (BP) an genetisch hypertonen Ratten nach täglich einmaliger p.o.-Applikation an zwei aufeinanderfolgenden Tagen (N=6/Dosis).

[1] = 2 h, 2h after dosing, read-out: BP (% Änderung vs. Kontrolle), Mittelwert für Meßzeitpunkte: Stunden nach Gabe (1. und 2. Tag) 2h
[2] = 6 h, 6h after dosing, read-out: BP (% Änderung vs. Kontrolle), Mittelwert für Meßzeitpunkte: Stunden nach Gabe (1. und 2. Tag) 6h
[3] = 24 h, 24h after dosing, read-out: BP (% Änderung vs. Kontrolle), Mittelwert für Meßzeitpunkte: Stunden nach Gabe (1. und 2. Tag) 24h

| SMILES | change in vivo at 25 µmol/kg [1] | change in vivo at 25 µmol/kg [2] | change in vivo at 25 µmol/kg [3] | also measured |
| --- | --- | --- | --- | --- |
| COC(=O)C1=C(C)NC(C)=C(C(=O)O[C@H](c2ccccc2)[C@@H](C)N(C)Cc2cc(OC)c(OC)c(OC)c2)C1c1cccc([N+](=O)[O-])c1 (single isomer, unassigned) [Beispiel 15] | -62.5% | -56% | -37% |  |
| CCN(C)[C@@H](C)[C@H](OC(=O)C1=C(C)NC(C)=C(C(=O)OC)C1c1cccc([N+](=O)[O-])c1)c1ccccc1 (single isomer, unassigned) [Beispiel 12] | -48.5% | -38% |  |  |
| CN[C@@H](C)[C@@H](OC(=O)C1=C(C)NC(C)=C(C(=O)OC)C1c1cccc([N+](=O)[O-])c1)c1ccccc1 (single isomer, unassigned) [9 (-66,3°)] | -55% | -49.5% |  |  |
| COC(=O)C1=C(C)NC(C)=C(C(=O)O[C@H](c2ccccc2)[C@H](C)N(C)CC=Cc2ccccc2)C1c1cccc([N+](=O)[O-])c1 (single isomer, unassigned) [Beispiel 14] | -51.5% | -41.5% |  |  |
| CCOC(=O)C1=C(C)NC(C)=C(C(=O)O[C@H](c2ccccc2)[C@H](C)N(C)C)C1c1cccc([N+](=O)[O-])c1 (single isomer, unassigned) [Beispiel 1b] |  |  |  | BP (% Änderung vs. Kontrolle), Mittelwert für Meßzeitpunkte: Stunden nach Gabe (1. und 2. Tag) 2h (2h after dosing): -40,0%; BP (% Änderung vs. Kontrolle), Mittelwert für Meßzeitpunkte: Stunden nach Gabe (1. und 2. Tag) 6h (6h after dosing): -30,3% |
| CCOC(=O)C1=C(C)NC(C)=C(C(=O)O[C@H](c2ccccc2)[C@H](C)N(C)C)C1c1cccc([N+](=O)[O-])c1 (single isomer, unassigned) [Beispiel 1a] |  |  |  | BP (% Änderung vs. Kontrolle), Mittelwert für Meßzeitpunkte: Stunden nach Gabe (1. und 2. Tag) 2h (2h after dosing): -47,5%; BP (% Änderung vs. Kontrolle), Mittelwert für Meßzeitpunkte: Stunden nach Gabe (1. und 2. Tag) 6h (6h after dosing): -44,5% |
| COC(=O)C1=C(C)NC(C)=C(C(=O)O[C@@H](c2ccccc2)[C@@H](C)N)C1c1cccc([N+](=O)[O-])c1 (single isomer, unassigned) [17 (-104,3°)] | -56% | -47% | -14.5% |  |
| COC(=O)C1=C(C)NC(C)=C(C(=O)O[C@H](c2ccccc2)[C@H](C)N(C)Cc2ccccc2)C1c1cccc([N+](=O)[O-])c1 (single isomer, unassigned) [Beispiel 11] | -53.5% | -48% |  |  |
| CN[C@H](C)[C@H](OC(=O)C1=C(C)NC(C)=C(C(=O)OC)C1c1cccc([N+](=O)[O-])c1)c1ccccc1 (single isomer, unassigned) [10 (+165,5°)] | -52% | -39.5% |  |  |
| COC(=O)C1=C(C)NC(C)=C(C(=O)O[C@H](c2ccccc2)[C@H](C)N(C)Cc2cc([N+](=O)[O-])ccc2OC)C1c1cccc([N+](=O)[O-])c1 (single isomer, unassigned) [Beispiel 19] |  |  |  | change in vivo at 10 µmol/kg [1]: -42%; change in vivo at 10 µmol/kg [2]: -23.5%; change in vivo at 10 µmol/kg [3]: -10.5% |
| CN[C@H](C)[C@@H](OC(=O)C1=C(C)NC(C)=C(C(=O)OC)C1c1cccc([N+](=O)[O-])c1)c1ccccc1 (single isomer, unassigned) [7 (-88°)] | -56% | -46% | -11.5% |  |
| COC(=O)C1=C(C)NC(C)=C(C(=O)O[C@H](c2ccccc2)[C@H](C)N)C1c1cccc([N+](=O)[O-])c1 (single isomer, unassigned) [16 (+216,4°)] | -59% | -56.5% | -21.5% |  |
| CN[C@@H](C)[C@H](OC(=O)C1=C(C)NC(C)=C(C(=O)OC)C1c1cccc([N+](=O)[O-])c1)c1ccccc1 (single isomer, unassigned) [8 (+202,6°)] | -55% | -43% | -10.5% |  |
| CCOC(=O)C1=C(C)NC(C)=C(C(=O)O[C@@H](c2ccccc2)[C@@H](C)N(C)C)C1c1cccc([N+](=O)[O-])c1 (single isomer, unassigned) [Beispiel 2b] | -40% | -34.3% |  |  |
